One compound from patent publication US7485651B2, “Compounds with activity on muscarinic receptors” (Acadia Pharmaceuticals, Inc., priority 1998, dated 2009) can be followed below.

In one assay the target is T1, m4 receptor (Homo sapiens, UniProt P08173).
T1 construct: expressed in transfected cells; host or cells: NIH 3T3 (ATCC CRL 1658)
T1 sequence (P08173 1-479): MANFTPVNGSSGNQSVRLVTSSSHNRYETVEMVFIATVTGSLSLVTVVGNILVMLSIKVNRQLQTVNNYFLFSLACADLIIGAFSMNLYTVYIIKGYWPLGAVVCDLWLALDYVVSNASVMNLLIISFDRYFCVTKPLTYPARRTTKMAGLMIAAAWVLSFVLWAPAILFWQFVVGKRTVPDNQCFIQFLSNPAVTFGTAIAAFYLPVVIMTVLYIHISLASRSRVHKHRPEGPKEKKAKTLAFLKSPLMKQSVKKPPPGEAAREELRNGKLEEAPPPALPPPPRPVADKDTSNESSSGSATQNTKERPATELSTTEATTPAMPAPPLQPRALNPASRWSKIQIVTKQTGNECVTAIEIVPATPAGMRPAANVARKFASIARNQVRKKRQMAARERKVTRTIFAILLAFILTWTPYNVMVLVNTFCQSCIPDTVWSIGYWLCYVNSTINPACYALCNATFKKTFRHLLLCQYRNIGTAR
The experiment in a line: NIH 3T3 cells transfected with m4 muscarinic receptor and Gq-i5. It counts as cell-based. The method, then: Transfection of cells with muscarinic receptor DNAs (general procedure) NIH 3T3 cells (available from the American Type Culture Collection as ATCC CRL 1658) were grown at 37° C. in a humidified atmosphere (5% CO2) incubator in Dulbecco's modified Eagle's medium (DMEM) supplemented with 4.5 g/l glucose, 4 mM glutamine, 50 units/m1 penicillin, 50 units/m1 streptomycin (available from Advanced Biotechnologies, Inc., Gaithersburg, Md.) and 10% calf serum (available from Sigma, St. Louis, […].). The cells were treated with trypsin-EDTA, spun down and plated at 2×10^6 per 15 cm dish in 20 m1 of DMEM containing 10% calf serum.
The m1-m5 muscarinic receptor subtypes were cloned substantially as described by Bonner et al., Science 237, 1987, p. 527, and Bonner et al., Neuron 1, 1988, p. 403. For the m2 and m4 receptors, the cells were co-transfected with DNA encoding a chimera between the Gq protein and the five carboxy-terminal amino acids of the Gi protein (the Gq-i5 construct is described by Conklin et al., Nature 363, 1993, p.274).
On day one, the cells were transfected using the Superfect transfection reagent (available from Qiagen, Valencia, Calif.) in accordance with the manufacturer's instructions. […]

Assay [1] concerns the target T2, α-adrenergic receptor subtype 1A (Homo sapiens, UniProt P35348).
T2 sequence (P35348 1-466): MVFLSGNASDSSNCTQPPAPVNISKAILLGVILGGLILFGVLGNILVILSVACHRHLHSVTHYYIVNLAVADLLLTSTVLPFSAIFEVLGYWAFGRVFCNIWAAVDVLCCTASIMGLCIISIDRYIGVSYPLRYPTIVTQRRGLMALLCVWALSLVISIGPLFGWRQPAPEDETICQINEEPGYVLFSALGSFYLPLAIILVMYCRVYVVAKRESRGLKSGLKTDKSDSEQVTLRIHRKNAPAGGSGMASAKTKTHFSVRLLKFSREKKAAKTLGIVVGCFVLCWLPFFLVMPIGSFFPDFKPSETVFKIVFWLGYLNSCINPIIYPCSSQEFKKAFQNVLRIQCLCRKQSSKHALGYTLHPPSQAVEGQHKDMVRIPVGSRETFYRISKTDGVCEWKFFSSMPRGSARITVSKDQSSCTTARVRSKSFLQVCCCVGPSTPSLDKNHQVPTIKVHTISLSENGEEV
Nature of the assay: Test against other receptors: α-adrenergic 1A. It counts as cell-based.

With `CCCCC1CCN(CCCC(=O)c2ccccc2C)CC1` [Compound A, 4-n-Butyl-1-[4-(2-methylphenyl)-4-oxo-1-butyl]piperidine], on m4 receptor, the “antagonism of carbachol-induced responses” value is “not an antagonist”. Further, in assay [1], the agonist activity entry was “no significant activity”.
